In patent publication US4269827A, “Process and composition for reducing blood pressure” (The Massachusetts General Hospital, priority 1980, dated 1981):
pKi: −log10 of the molar value. Values joined by “and” are separate entries in the source; they are usually repeats but may differ in a detail not shown here. Equal entries are not always repeated. Where two headings read alike, the source gives them in different places. No end group written: not given here.

Assays:
renin [1] = target: T1, renin (Homo sapiens, UniProt P00797); settings: octapeptides with changed cleavage site; read-out: binding constants; cited from earlier work
T1 sequence (P00797 67-406): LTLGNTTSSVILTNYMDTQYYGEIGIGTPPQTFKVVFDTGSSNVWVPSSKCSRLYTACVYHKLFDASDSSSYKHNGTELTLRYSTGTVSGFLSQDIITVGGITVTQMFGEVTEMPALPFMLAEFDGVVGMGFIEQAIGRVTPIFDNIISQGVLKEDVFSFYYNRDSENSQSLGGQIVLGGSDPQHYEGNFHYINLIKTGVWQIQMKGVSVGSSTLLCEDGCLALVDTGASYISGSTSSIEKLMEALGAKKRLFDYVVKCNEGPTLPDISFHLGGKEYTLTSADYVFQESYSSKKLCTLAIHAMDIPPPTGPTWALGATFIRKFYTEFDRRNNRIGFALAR

plasma renin activity = target: T2, plasma renin activity (Homo sapiens, UniProt P00797); experiment: In vitro inhibition of plasma renin activity in pooled human plasma; assay type: biochemical; settings: peptide in saline (1 mM) added to pooled human plasma; read-out: 50% inhibition of plasma renin activity (converted)
T2 construct: added to pooled human plasma having a plasma renin activity; from tissue; host or cells: pooled human plasma
T2 sequence (P00797 67-406): T1 sequence (P00797 67-406)
Method: The mixture is incubated for 45 min at 37° and then cooled to 0°. Complementary amounts of plasma are then added as 20 μl of a plasma dilution in 0.1 M Tris HCl (pH 7.5) containing 0.5% albumin to give the same amount of plasma protein in all tubes. Tracer and antibody (1000 μl) are then added following the radioimmunoassay procedure described by Poulsen et al, J. Clin. Endocrinol. Metab. 39, 816, (1974). Data for the standard curve is collected in the same medium kept at 4°. To determine Ki parallel series of experiments are performed in which the 10 μl Tris buffer is replaced with 10 μl of a solution containing between 2-100 μM inhibitor, respectively.
The inhibitory effect of the decapeptide in human plasma was determined as follows: human blood was drawn in ice cold tubes containing EDTA as anticoagulent and the plasma was immediately separated at 4° C. […] Substrate concentration was determined by measuring angiotensin I concentration by radioimmunoassay after incubation of plasma diluted 1:10 in the phosphate albumin buffer (pH 7.4) with 10 µl of human renin solution (0.006 GU/ml) for 1, 2, 3 and 4 hrs in order to convert renin substrate completely to angiotensin I. EDTA, BAL (2,3-dimercapto-1-propanol) and 8-hydroxyquinoline were added as angiotensinase inhibitors, Haber et al, J. Clin. Endocrinol. […]

renin [2] = target: T1, renin; experiment: In vitro inhibition of renin, inhibitor constant (Ki) with tetradecapeptide substrate, angiotensin I radioimmunoassay; assay type: biochemical; settings: pH 7.4, read-out: inhibitory constant (Ki)
Method: The peptide being tested is dissolved in 0.01 N HCl and the pH adjusted to pH 7.5 to obtain high concentrations of peptide. The peptide solution is diluted further to appropriate concentrations with 0.1 M Tris HCL-albumin.
First, to determine Km renin (0.006 Goldblatt unit/ml) is incubated for 2 hrs. at 37° with incremental concentrations of Tetradecapeptide substrate varying between 3 and 108 μM in a volume of 160 μl at pH 7.5 in 0.1 M Tris HCl containing 0.5% albumin. The release of angiotensin I is determined by radioimmunoassay, Haber et al., J. Clin. Endocrinol. […] The cross-reaction of the tetradecapeptide with antibody is about 1% and less than 0.5% with the renin inhibitors both before and after exposure to renin.
The inhibitor constant is calculated as previously described, Poulsen et al., Scand. […] No. 132, 1, (1973), from a weighted least-squares fit of a Lineweaver-Burk plot. Each point is given a weight proportional to the initial velocity, Dowd et al, J. Biol. Chem. 240, 863, (1965).
The tetradecapeptide is a renin substrate releasing angiotensin I after cleavage between leucyl residues at positions 10 and 11.
Specific antibody is used to measure angiotensin I release from the decapeptide.
The rate of cleavage between renin and decapeptide will therefore be given by Dixon and Webb, Enzymes, New York, N.Y., Academic (1964), [formula] […]

Substance	pKi (renin [1])	IC50 (plasma renin activity)	pKi (renin [2])
Leu-Phe	5.40		
Leu-Tyr	4.92		
PHPFHFFVYK [I, Pro-His-Pro-Phe-His-Phe-Phe-Val-Tyr-Lys]		45 µM and 44.7 µM	5.70
Phe-Phe	6.00		
